How the values were obtained:
human PPAR α = molecular target: T1, human PPAR α (Homo sapiens, UniProt Q07869); assay: In vitro PPAR alpha transactivation assay (GAL4-DBD/PPAR-LBD, luciferase reporter, HEK293); type: cell-based; settings: for In vitro activation PPAR α % max: fold activation relative to maximum activation obtained with Wy14643 (approx. 20 fold corresponded to 100%); for EC50: transfected HEK293 cells, 24 h compound, five concentrations 0.01 to 30 μM, at least three experiments, means, read-out: In vitro activation PPAR α EC50
T1 construct: expressed in transfected cells; host or cells: HEK293
T1 sequence (Q07869 167-468 limits assumed): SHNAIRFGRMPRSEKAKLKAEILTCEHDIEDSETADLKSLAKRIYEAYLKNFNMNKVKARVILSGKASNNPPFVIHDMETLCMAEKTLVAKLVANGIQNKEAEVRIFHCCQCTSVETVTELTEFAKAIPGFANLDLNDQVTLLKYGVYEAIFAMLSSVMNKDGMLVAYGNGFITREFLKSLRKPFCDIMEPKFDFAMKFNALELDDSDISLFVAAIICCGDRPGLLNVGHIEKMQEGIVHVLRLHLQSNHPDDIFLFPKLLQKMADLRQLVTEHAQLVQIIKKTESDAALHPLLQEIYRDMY
From the text: (§1) In Vitro PPAR Alpha and PPAR Gamma Activation Activity.
(§2) The PPAR gene transcription activation assays were based on transient transfection into human HEK293 cells of two plasmids encoding a chimeric test protein and a reporter protein respectively. The chimeric test protein was a fusion of the DNA binding domain (DBD) from the yeast GAL4 transcription factor to the ligand binding domain (LBD) of the human PPAR proteins. The PPAR LBD harbored in addition to the ligand binding pocket also the native activation domain (activating function 2=AF2) allowing the fusion protein to function as a PPAR ligand dependent transcription factor. The GAL4 DBD will force the fusion protein to bind only to Gal4 enhancers (of which none existed in HEK293 cells). The reporter plasmid contained a Gal4 enhancer driving the expression of the firefly luciferase protein. After transfection, HEK293 cells expressed the GAL4-DBD-PPAR-LBD fusion protein. The fusion protein will in turn bind to the Gal4 enhancer controlling the luciferase expression, and do nothing in the absence of ligand. Upon addition to the cells of a PPAR ligand, luciferase protein will be produced in amounts corresponding to the activation of the PPAR protein. The amount of luciferase protein is measured by light emission after addition of the appropriate substrate.
(§3) Cell culture and transfection: HEK293 cells were grown in DMEM+10% FCS. Cells were seeded in 96-well plates the day before transfection to give a confluency of 50-80% at transfection. A total of […] DNA containing 0.64 μg pM1α/γLBD, 0.1 μg pCMVβGal, 0.08 μg pGL2Gal4DBD and 0.02 μg p[…] was transfected per well using FuGene transfection reagent according to the manufacturers instructions (Roche). Cells were allowed to express protein for 48 h followed by addition of compound.
Plasmids: Human PPAR α and γ was obtained by PCR amplification using cDNA synthesized by reverse transcription of mRNA from liver and adipose tissue respectively. Amplified cDNAs were cloned into pCR2.1 and sequenced. The ligand binding domain (LBD) of each PPAR isoform was generated by PCR (PPARα: aa 167—C-terminus; PPARγ: aa 165—C-terminus) and fused to the DNA binding domain (DBD) of the yeast transcription factor GAL4 by subcloning fragments in frame into the vector pM1 generating the plasmids pM1αLBD and pM1γLBD. Ensuing fusions were verified by sequencing. The reporter was constructed by inserting an oligonucleotide encoding five repeats of the GAL4 recognition sequence (5×[…](AG)) into the vector pGL2 promotor (Promega) generating the plasmid pGL2(GAL4)5. pCMVβGal was purchased from Clontech and p[…] was purchased from Promega.
(§4) Luciferase assay: Medium including test compound was aspirated and 100 μl PBS incl. 1 mM Mg++ and Ca++ was added to each well. The luciferase assay was performed using the Lu-cLite kit according to the manufacturers instructions (Packard Instruments). Light emission was quantified by counting SPC mode on a Packard Instruments top-counter. To measure β-galactosidase activity 25 μl supernatant from each transfection lysate was transferred to a new microplate. β-galactosidase assays were performed in the microwell plates using a kit from Promega and read in a microplate reader. The β-galactosidase data were used to normalize (transfection efficiency, cell growth etc.) the luciferase data.
(§5) Compounds: All compounds were dissolved in DMSO and diluted 1:1000 upon addition to the cells. Compounds were tested in quadruple in five concentrations ranging form 0.01 to 30 μM. Cells were treated with compound for 24 h followed by luciferase assay. Each compound was tested in three separate experiments. EC50 values were calculated via non-linear regression using GraphPad PRISM 3.02 (GraphPad Software, San Diego, Calif.). The results were expressed as means.

human PPAR γ = molecular target: T2, human PPAR γ (Homo sapiens, UniProt P37231); assay: In vitro PPAR gamma transactivation assay (GAL4-DBD/PPAR-LBD, luciferase reporter, HEK293); type: cell-based; settings: for In vitro activation PPAR γ % max: fold activation relative to maximum activation obtained with rosiglitazone (approx. […] fold corresponded to 100%); for EC50: transfected HEK293 cells, 24 h compound, five concentrations 0.01 to 30 μM, at least three experiments, means, read-out: In vitro activation PPAR γ EC50
T2 construct: PPARγ: aa 165—C-terminus); expressed in transfected cells; host or cells: HEK293
T2 sequence (P37231 238-503 limits assumed): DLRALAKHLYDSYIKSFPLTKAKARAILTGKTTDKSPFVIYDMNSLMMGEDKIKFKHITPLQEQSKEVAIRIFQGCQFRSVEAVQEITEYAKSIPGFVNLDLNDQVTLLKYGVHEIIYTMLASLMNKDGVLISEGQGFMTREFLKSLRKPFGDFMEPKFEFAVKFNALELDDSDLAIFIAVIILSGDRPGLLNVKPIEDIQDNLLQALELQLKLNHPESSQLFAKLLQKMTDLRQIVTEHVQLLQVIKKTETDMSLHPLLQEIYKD
From the text: as §1, §2, §3
Plasmids: Human PPAR α and γ was obtained by PCR amplification using cDNA synthesized by reverse transcription of mRNA from liver and adipose tissue respectively. Amplified cDNAs were cloned into pCR2.1 and sequenced. The ligand binding domain (LBD) of each PPAR isoform was generated by PCR (PPARα: aa 167—C-terminus; PPARγ: aa 165—C-terminus) and fused to the DNA binding domain (DBD) of the yeast transcription factor GAL4 by subcloning fragments in frame into the vector pM1 generating the plasmids pM1αLBD and pM1γLBD. Ensuing fusions were verified by sequencing.
as §4, §5

SMILES	In vitro activation PPAR α % max (human PPAR α) [%]	EC50 (human PPAR α) [µM]	In vitro activation PPAR γ % max (human PPAR γ) [%]	EC50 (human PPAR γ) [µM]	melting point [°C]
CCOC(=O)[C@H](Cc1ccc(OC/C=C(\C)c2ccc3c(c2)Cc2ccccc2-3)cc1)OCC [Example 9, (E)-(S)-2-Ethoxy-3-{4-[3-(9H-fluoren-2-yl)-but-2-enyloxy]-phenyl}-propionic acid ethyl ester]	234	0.038	125	0.35	
C/C(=C\COc1ccc(CC(OC(C)C)C(=O)O)cc1)c1ccc(-c2ccccc2)cc1 (racemic) [Example 134, (E)-(S/R)-3-[4-(3-Biphenyl-4-yl-but-2-enyloxy)-phenyl]-2-isopropoxy-propionic acid]	122	2.9	155	0.89	125 to 127.5
CCO[C@@H](Cc1ccc(OC/C=C(\C)c2ccc(-c3cc(Cl)ccc3OC)cc2)cc1)C(=O)O [Example 57, (E)-(S)-3-{4-[3-(5′-Chloro-2′-methoxy-biphenyl-4-yl)-but-2-enyloxy]-phenyl}-2-ethoxy-propionic acid]	178	0.38	110	0.7	
CCO[C@@H](Cc1ccc(OC/C=C(\C)c2ccc(-c3cc(Br)cc(Br)c3)cc2)cc1)C(=O)O [Example 124, (E)-(S)-3-{4-[3-(3′,5′-Dibromo-biphenyl-4-yl)-but-2-enyloxy]-phenyl}-2-ethoxy-propionic acid]	102	0.35	83	0.3	
CCOC(=O)[C@H](Cc1ccc(OC/C=C(\C)c2ccc(-c3ccc(C(C)C)cc3)cc2)cc1)OCC [Example 103, (E)-(S)-Ethyl 2-Ethoxy-3-{4-[3-(4′-isopropyl-biphenyl-4-yl)-but-2-enyloxy]-phenyl}-propionate]					70 to 73
CCCCCCOC(Cc1ccc(OC/C=C(\C)c2ccc(-c3ccccc3)cc2)cc1)C(=O)O (racemic) [Example 138, (E)-(S/R)-3-[4-(3-Biphenyl-4-yl-but-2-enyloxy)-phenyl]-2-hexyloxy-propionic acid]					117 to 119
CCOC(=O)[C@H](Cc1ccc(OC/C=C/c2cc3ccccc3o2)cc1)OCC [Example 27]	185	0.1	99	0.11	
CCOC(=O)C(Cc1ccc(OC/C=C(\C)c2ccc(-c3ccccc3)cc2)cc1)OC(C)C (racemic) [Example 133, (E)-(S/R)-Ethyl 3-[4-(3-Biphenyl-4-yl-but-2-enyloxy)-phenyl]-2-isopropoxy-propionate]					79 to 81
CCO[C@@H](Cc1ccc(OC/C=C(\C)c2ccc(-c3ccc(Br)cc3)cc2)cc1)C(=O)O [Example 4, (E)-(S)-3-{4-[3-(4′-Bromo-biphenyl-4-yl)-but-2-enyloxy]-phenyl}-2-ethoxy-propionic acid]	212	3.1	156	0.72	
CCCCOC(Cc1ccc(OC/C=C(\C)c2ccc(-c3ccccc3)cc2)cc1)C(=O)OCC (racemic) [Example 135, (E)-(S/R)-Ethyl 3-[4-(3-Biphenyl-4-yl-but-2-enyloxy)-phenyl]-2-butoxy-propionate]					62 to 63.5
C/C(=C\COc1ccc(CC(OCCCc2ccccc2)C(=O)O)cc1)c1ccc(-c2ccccc2)cc1 (racemic) [Example 140, (E)-(S/R)-3-[4-(3-Biphenyl-4-yl-but-2-enyloxy)-phenyl]-2-(3-phenyl-propoxy)-propionic acid]					115 to 117

— patent US6867218B2, “Compounds, their preparation and use” (Novo Nordisk A/S, priority 2000, dated 2005)
